{
  "source": "patent US20090269418A1",
  "about": "“Compositions and Methods for Inducing Hair Growth” (BioMas Ltd, priority 2004, published 2009)",
  "key": {"interferon (IFN) [1]": {"test_system": "interferon (IFN)", "settings": "humans; cited from earlier work"}, "KGF expression": {"test_system": "KGF expression", "settings": "cultured fibroblasts; via Cys118 of p21ras, ras signalling pathway; cited from earlier work"}, "hair growth [2]": {"test_system": "hair growth", "settings": "humans; cited from earlier work"}, "interferon (IFN) [3]": {"test_system": "interferon (IFN)", "settings": "mice; cited from earlier work"}, "hair growth [4]": {"test_system": "hair growth", "settings": "nude mice, normal mice; in nude mice systemic, oral or topical; cited from earlier work"}, "anagen / catagen": {"test_system": "anagen / catagen", "settings": "C57BL/6 mouse model; cited from earlier work"}, "[5]": {"test_system": "bone marrow toxicity and alopecia induced by chemotherapy", "settings": "cancer patients; cited from earlier work"}, "IL-1, IL-6, TNF-α, IL-10": {"test_system": "IL-1, IL-6, TNF-α, IL-10", "settings": "cited from earlier work"}, "[6]": {"test_system": "hair shedding / hair growth of the scalp in patients", "experiment": "Small-scale human clinical study of 0.01% AS101 topical spray, TrichoScan hair density analysis", "format": "in vivo", "description": "Two small-scale human clinical studies were each conducted over a 6 month period to evaluate the potential use of an 0.01% AS101 spray formulation for the prevention of hair shedding and/or enhancing hair growth. Patients received no other alopecia treatment for at least 3 months prior to commencement of the study.\nThe sample group consisted of 36 patients, of which 6 withdrew due to non-compliance. Data from a further 14 patients was considered to be unsuitable for analysis with the TrichoScan system, for example, due to untraceable tattoos. 16 patients were therefore available for evaluation.\nDuring an initial visit, a designated area of the scalp (about 0.7 cm^2) was shaved. Three days later, the area was tattooed using red ink, and photographed (Nikon digital camera). Patients were provided with a topical spray composition comprising 0.01% AS101 in 20% propylene glycol, 20% water and 60% ethyl alcohol, and were instructed to apply about 2 ml of the composition on the designated area on a daily basis for the first week, and once a day, twice a week thereafter. Patients were examined upon enrollment, and then after about 2 months, after about 3 months, and after about 6 months. Hair density, terminal hair density, and vellus hair density were analyzed, using the DatInf^R Image DB image archiving system, and TichoScan software.\nResults were calculated in terms of hair density, terminal hair density, and vellus hair density.\nFIGS. 2a and 2b present the data obtained for the hair density, terminal hair density and vellus hair density, each per cm^2, with two representative individuals of the study. The above parameters were measured at commencement of the study, after about 1 month, after about 3 months, and after about 6 months. All results were obtained using the DatInf^R Image DB image archiving system, and TichoScan software."}},
  "note": "“Also recorded” adds a separate entry of the source. Read-outs that look alike come from different tables or passages of the source.",
  "data": [
    {"compound": "Cl[TeH]1(Cl)(Cl)OCCO1", "note": "[AS101, ammonium trichloro(dioxyethylene-O,O′)tellurate]", "values": [
      {"measurement": "interferon (IFN) induction", "setting": "interferon (IFN) [1]", "result": "potent activator; also recorded: potent inducer"},
      {"measurement": "KGF expression", "setting": "KGF expression", "result": "upregulates KGF expression"},
      {"measurement": "induction of hair growth", "setting": "hair growth [2]", "result": "induce hair growth"},
      {"measurement": "interferon (IFN) induction", "setting": "interferon (IFN) [3]", "result": "potent activator; also recorded: potent inducer"},
      {"measurement": "induction of hair growth", "setting": "hair growth [4]", "result": "induce hair growth"},
      {"measurement": "anagen induction and retardation of spontaneous catagen", "setting": "anagen / catagen", "result": "induce anagen and retard spontaneous catagen"},
      {"measurement": "protection from bone marrow toxicity and alopecia induced by chemotherapy", "setting": "[5]", "result": "ability to protect"},
      {"measurement": "IL-10 inhibition", "setting": "IL-1, IL-6, TNF-α, IL-10; m-RNA level", "result": "inhibit IL-10 at the m-RNA level"},
      {"measurement": "secretion of cytokines such as IL-1, IL-6 and TNF-α", "setting": "IL-1, IL-6, TNF-α, IL-10; macrophages are one main target", "result": "induce the secretion"},
      {"measurement": "side-effects", "setting": "[6]; 0.01% AS101 topical spray, 6 months", "result": "No side-effects were observed"},
      {"measurement": "patients responding partially (increase observed during part of the treatment period)", "setting": "[6]; 0.01% AS101 topical spray, 6 months, 16 evaluable patients", "result": 18.75, "unit": "%"},
      {"measurement": "patients who completed the study responding with a consistent increase in hair density", "setting": "[6]; 0.01% AS101 topical spray, about 2 ml, daily first week then twice a week, 6 months, 16 evaluable patients", "result": 37.5, "unit": "%"},
      {"measurement": "hair density, terminal hair density and vellus hair density per cm^2", "setting": "[6]; after about 1 month, representative person and person (FIGS. 2a, 2b)", "result": "significant increase"}
    ]}
  ]
}
